A word on the AC50: it is the concentration giving half of the maximal activity seen.

Some targets named below: Histamine H3 receptor (Homo sapiens, UniProt Q9Y5N1); D(3) dopamine receptor (Homo sapiens, UniProt P35462); D(1A) dopamine receptor (Homo sapiens, UniProt P21728).
Assay [1] concerns the target Sodium-dependent noradrenaline transporter (Homo sapiens, UniProt P23975).
The target of assay [2] is cGMP-inhibited 3',5'-cyclic phosphodiesterase 3A (Homo sapiens, UniProt Q14432). The assay is classed as functional.
In assay [3] the target is T1, Muscarinic acetylcholine receptor M2 (Homo sapiens, UniProt P08172).
T1 sequence (P08172 whole entry): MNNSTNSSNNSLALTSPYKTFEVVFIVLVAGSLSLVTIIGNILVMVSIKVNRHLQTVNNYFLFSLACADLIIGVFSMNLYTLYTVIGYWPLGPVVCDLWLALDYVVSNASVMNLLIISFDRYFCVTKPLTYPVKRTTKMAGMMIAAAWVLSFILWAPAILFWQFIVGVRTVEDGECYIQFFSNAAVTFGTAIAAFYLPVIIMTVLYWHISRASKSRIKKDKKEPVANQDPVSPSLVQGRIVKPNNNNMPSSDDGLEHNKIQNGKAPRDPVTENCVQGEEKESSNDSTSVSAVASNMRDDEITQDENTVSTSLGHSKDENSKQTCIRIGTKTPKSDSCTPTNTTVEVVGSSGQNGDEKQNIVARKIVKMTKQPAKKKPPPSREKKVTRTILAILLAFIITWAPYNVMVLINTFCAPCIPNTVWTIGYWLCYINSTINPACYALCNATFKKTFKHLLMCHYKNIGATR

For assay [4], the target named is T2, Alpha-1A adrenergic receptor (Homo sapiens, UniProt P35348).
T2 sequence (P35348 whole entry): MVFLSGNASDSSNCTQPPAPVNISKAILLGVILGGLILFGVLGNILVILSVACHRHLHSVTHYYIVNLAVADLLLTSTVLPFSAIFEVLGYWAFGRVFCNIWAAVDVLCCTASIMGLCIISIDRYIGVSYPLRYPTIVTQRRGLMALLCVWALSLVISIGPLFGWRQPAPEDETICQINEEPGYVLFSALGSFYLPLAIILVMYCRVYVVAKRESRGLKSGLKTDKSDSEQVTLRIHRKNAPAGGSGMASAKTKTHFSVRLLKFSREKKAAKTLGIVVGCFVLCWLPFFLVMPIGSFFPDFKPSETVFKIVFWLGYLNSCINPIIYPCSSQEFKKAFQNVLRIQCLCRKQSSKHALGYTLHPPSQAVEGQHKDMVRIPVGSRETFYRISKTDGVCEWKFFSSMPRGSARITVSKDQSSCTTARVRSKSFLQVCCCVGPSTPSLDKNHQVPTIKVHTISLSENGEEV
The assay is classed as functional, cell-based.

In assay [5] the target is T3, 5-hydroxytryptamine receptor 1A (Homo sapiens, UniProt P08908).
T3 sequence (P08908 whole entry): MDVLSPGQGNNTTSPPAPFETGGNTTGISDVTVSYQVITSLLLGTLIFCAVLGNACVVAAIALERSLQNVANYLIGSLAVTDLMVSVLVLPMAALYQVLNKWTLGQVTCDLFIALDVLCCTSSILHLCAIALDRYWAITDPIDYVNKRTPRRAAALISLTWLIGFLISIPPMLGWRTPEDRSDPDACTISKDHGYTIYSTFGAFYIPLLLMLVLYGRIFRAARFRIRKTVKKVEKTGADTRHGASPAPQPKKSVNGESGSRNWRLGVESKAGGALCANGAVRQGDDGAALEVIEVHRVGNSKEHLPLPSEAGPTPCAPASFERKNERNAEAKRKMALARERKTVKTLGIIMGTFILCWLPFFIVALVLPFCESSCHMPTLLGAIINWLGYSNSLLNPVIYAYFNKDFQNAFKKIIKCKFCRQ

Assay [6] addresses Sodium-dependent dopamine transporter (Homo sapiens, UniProt Q01959).
For another assay, the target named is Prothrombin (Homo sapiens, UniProt P00734). The assay is classed as functional.
The target in a further assay is T4, Thromboxane A2 receptor (Homo sapiens, UniProt P21731).
T4 sequence (P21731 whole entry): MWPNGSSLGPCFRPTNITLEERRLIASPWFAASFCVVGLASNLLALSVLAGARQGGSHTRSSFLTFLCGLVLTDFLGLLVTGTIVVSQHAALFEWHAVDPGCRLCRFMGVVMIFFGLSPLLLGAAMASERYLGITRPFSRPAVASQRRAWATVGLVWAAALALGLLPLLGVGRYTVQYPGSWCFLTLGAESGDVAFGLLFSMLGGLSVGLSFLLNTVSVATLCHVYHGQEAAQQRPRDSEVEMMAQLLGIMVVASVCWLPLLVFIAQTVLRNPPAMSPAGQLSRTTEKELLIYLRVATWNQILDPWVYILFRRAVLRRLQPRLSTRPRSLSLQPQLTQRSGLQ
The assay is classed as functional, cell-based.

Assay [7] deals with T5, Amine oxidase [flavin-containing] A (Homo sapiens, UniProt P21397).
T5 sequence (P21397 whole entry): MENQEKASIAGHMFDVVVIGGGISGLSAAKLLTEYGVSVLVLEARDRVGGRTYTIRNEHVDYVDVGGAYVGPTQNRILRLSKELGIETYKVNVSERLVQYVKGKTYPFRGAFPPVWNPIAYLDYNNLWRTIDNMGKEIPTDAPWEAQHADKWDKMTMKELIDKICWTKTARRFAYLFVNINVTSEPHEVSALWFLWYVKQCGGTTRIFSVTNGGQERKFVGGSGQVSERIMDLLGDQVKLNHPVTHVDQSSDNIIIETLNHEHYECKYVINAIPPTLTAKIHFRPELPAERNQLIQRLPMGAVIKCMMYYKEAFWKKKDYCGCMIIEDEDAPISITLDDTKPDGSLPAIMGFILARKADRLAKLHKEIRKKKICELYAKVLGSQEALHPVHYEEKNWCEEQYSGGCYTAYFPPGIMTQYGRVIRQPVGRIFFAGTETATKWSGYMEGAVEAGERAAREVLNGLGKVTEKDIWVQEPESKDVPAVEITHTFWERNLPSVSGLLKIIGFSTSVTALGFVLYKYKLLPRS
The assay is classed as functional.

Assay [8] deals with 3',5'-cyclic-AMP phosphodiesterase 4A (Homo sapiens, UniProt P27815). The assay is classed as functional.
The next assay deals with Acetylcholinesterase (Homo sapiens, UniProt P22303). The assay is classed as functional.
Assay [9] addresses T6, Prostaglandin G/H synthase 1 (Homo sapiens, UniProt P23219). The assay is classed as functional.
For assay [10], the target named is T6, Prostaglandin G/H synthase 1. The assay is classed as functional. This is another data set of the same source.

Some results are limits rather than exact numbers.
Also: assay procedure not described here.

Sequence of Histamine H3 receptor (Q9Y5N1 whole entry): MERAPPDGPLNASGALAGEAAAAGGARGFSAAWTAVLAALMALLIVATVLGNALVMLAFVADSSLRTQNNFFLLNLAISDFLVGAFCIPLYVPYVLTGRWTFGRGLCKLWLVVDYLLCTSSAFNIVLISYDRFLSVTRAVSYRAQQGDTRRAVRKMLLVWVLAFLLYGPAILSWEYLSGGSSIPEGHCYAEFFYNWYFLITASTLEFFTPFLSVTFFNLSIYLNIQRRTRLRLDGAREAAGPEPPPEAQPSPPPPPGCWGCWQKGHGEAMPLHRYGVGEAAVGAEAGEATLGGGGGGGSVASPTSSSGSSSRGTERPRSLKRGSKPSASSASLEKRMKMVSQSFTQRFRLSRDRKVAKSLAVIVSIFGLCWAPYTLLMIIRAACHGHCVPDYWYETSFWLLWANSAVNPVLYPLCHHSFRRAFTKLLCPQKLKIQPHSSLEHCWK
Sequence of Sodium-dependent dopamine transporter (Q01959 whole entry): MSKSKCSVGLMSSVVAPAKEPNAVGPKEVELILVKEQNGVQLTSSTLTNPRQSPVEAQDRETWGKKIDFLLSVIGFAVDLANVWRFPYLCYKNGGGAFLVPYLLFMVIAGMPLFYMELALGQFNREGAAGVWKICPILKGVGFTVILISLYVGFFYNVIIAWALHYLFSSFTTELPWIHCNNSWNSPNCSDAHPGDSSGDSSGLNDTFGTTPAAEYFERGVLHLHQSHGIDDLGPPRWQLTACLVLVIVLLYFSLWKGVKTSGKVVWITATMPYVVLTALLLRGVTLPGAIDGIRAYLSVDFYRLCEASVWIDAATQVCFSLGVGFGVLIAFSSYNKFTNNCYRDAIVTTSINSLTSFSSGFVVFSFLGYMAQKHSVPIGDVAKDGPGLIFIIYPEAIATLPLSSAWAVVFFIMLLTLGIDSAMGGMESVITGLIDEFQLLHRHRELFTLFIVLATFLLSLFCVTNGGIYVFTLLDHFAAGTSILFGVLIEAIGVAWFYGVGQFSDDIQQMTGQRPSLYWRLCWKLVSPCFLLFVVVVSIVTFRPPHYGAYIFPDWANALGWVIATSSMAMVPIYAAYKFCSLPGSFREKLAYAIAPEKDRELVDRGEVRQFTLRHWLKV
Sequence of cGMP-inhibited 3',5'-cyclic phosphodiesterase 3A (Q14432 whole entry): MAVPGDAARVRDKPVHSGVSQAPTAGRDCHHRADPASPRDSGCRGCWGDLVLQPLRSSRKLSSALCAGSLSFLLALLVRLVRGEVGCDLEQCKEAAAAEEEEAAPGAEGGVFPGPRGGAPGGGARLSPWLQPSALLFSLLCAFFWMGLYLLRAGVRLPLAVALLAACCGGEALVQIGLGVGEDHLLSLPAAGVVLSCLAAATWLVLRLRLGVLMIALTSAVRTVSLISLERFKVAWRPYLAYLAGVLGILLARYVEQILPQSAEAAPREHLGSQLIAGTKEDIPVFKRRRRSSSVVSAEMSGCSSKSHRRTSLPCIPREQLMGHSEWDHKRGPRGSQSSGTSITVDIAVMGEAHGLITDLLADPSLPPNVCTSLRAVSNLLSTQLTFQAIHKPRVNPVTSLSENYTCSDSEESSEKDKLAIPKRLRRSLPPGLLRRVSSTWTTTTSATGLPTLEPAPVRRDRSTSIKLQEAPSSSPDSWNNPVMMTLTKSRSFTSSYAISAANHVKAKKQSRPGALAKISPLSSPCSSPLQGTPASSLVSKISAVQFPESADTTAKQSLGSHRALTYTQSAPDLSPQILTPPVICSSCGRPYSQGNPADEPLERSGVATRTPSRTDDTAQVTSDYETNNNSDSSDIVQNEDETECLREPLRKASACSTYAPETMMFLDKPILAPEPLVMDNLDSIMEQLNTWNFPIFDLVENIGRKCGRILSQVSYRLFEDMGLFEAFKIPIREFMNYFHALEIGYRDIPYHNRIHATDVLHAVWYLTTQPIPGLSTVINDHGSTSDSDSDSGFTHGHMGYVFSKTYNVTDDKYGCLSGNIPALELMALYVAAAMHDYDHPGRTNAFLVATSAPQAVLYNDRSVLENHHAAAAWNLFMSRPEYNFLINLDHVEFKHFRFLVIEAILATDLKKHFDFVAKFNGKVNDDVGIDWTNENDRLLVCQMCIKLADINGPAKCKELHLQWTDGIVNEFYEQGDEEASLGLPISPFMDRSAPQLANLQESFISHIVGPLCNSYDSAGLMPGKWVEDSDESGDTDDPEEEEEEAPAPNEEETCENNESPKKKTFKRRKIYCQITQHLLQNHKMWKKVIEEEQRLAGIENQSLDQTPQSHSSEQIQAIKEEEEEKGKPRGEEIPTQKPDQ
Sequence of D(3) dopamine receptor (P35462 whole entry): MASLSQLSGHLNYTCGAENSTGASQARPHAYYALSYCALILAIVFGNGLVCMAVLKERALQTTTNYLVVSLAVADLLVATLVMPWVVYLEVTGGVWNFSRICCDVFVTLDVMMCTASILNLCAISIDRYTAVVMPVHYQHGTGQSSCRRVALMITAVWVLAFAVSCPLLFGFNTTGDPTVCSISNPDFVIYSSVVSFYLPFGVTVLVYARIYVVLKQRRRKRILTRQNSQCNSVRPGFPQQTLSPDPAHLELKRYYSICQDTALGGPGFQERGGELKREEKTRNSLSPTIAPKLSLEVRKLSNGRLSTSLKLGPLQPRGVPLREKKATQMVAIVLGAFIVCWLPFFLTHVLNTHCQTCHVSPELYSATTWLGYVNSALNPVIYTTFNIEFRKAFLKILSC
Sequence of Acetylcholinesterase (P22303 whole entry): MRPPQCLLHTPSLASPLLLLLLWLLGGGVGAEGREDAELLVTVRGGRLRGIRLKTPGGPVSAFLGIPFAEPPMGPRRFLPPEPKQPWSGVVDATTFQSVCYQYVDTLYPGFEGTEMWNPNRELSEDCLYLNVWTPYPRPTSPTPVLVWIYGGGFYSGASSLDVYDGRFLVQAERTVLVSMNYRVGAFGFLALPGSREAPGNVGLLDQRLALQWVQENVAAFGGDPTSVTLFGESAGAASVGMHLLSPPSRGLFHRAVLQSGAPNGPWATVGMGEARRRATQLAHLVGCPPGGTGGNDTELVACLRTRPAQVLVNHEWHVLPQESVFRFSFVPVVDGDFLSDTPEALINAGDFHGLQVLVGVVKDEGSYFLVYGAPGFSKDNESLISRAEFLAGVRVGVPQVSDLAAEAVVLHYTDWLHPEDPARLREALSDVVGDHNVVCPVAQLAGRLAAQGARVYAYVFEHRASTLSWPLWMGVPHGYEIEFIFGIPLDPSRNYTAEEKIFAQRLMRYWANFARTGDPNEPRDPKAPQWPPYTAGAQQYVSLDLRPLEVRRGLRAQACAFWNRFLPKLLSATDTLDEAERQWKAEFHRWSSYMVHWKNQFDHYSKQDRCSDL
Sequence of 3',5'-cyclic-AMP phosphodiesterase 4A (P27815 whole entry): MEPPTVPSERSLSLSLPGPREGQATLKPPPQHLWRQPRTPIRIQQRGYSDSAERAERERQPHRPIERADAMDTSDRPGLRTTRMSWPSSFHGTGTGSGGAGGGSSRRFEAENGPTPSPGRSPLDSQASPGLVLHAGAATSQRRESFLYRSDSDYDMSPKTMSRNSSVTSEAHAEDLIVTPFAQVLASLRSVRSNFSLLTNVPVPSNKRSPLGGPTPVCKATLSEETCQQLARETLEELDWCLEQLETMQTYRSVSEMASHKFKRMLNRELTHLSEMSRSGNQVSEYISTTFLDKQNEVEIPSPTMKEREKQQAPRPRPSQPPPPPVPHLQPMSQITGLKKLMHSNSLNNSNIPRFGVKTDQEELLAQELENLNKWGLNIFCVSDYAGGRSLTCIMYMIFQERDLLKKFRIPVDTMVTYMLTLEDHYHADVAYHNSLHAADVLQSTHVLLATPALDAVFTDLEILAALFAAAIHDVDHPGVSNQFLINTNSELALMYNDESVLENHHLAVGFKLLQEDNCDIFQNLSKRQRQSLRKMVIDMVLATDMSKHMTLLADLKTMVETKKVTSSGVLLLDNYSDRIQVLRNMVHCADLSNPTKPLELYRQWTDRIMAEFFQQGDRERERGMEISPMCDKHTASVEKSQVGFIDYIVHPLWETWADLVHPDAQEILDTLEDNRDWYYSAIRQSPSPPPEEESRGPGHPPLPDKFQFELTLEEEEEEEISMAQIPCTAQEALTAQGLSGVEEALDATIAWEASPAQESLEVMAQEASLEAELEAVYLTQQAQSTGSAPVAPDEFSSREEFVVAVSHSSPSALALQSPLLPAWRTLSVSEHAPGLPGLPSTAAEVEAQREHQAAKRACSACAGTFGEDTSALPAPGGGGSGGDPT
T6 sequence (P23219 whole entry): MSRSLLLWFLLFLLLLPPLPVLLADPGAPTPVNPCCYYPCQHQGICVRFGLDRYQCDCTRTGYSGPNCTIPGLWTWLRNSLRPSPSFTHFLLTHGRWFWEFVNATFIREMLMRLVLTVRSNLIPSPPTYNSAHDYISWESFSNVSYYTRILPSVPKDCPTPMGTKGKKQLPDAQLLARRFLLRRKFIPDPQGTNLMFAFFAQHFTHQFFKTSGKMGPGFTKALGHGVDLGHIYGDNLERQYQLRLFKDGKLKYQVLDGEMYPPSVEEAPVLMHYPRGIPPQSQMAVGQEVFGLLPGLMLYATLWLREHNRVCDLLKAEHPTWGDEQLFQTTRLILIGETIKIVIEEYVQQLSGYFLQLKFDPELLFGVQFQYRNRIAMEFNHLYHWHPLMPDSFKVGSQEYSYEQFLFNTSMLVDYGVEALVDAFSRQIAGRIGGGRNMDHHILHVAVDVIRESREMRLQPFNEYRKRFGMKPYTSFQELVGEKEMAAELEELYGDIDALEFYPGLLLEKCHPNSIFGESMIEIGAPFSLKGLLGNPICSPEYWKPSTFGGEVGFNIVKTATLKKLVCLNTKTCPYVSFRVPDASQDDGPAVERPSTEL

In the case of `Nc1c(CC(=O)O)cccc1C(=O)c1ccc(Br)cc1` [BROMFENAC], the AC50 (in assay [1]; on Histamine H3 receptor; in assay [2]; in assay [3]; at D(3) dopamine receptor; in assay [4]) was above 30 µM throughout. Further, the AC50 (at D(1A) dopamine receptor; in assay [5]; in [6]; at Prothrombin; on Thromboxane A2 receptor; in [7]) was above 30 µM in each case. Moreover, the half-maximal activity concentration (AC50) (in [8]; at Acetylcholinesterase) was above 30 µM throughout.
As to `CC(C)NC(=N)NC(=N)Nc1ccc(Cl)c(Cl)c1` [CHLORPROGUANIL], the concentration at half-maximal activity (AC50) in assay [1] is 2.89 µM; on Histamine H3 receptor, above 30 µM; in assay [2], above 30 µM; in [3], 29.7 µM; at D(3) dopamine receptor it was above 30 µM; at D(1A) dopamine receptor it was 1.77 µM. Besides, the AC50 in [9] is above 30 µM; in [5], 3.82 µM; in [6], 1.86 µM; at Prothrombin, above 30 µM; on Thromboxane A2 receptor, above 10 µM; in [7], above 30 µM. Further, the AC50 (in [10]; in assay [8]; on Acetylcholinesterase) was above 30 µM in each case.
Regarding `O=C(O)Cc1ccccc1Nc1c(Cl)cccc1Cl` [DICLOFENAC], the AC50 (in assay [1]; at Histamine H3 receptor; in assay [2]; in [3]; at D(3) dopamine receptor; in assay [4]) was above 3 µM in each case. Also, the AC50 (on D(1A) dopamine receptor; in assay [5]; in [6]; on Prothrombin; at Thromboxane A2 receptor; in [7]) was above 3 µM in each case. Also, the AC50 (in assay [8]; at Acetylcholinesterase) was above 3 µM each time.
Turning to `CN[C@@H]1[C@H](O[C@H]2[C@H](O[C@H]3[C@H](O)[C@@H](O)[C@H](NC(=N)N)[C@@H](O)[C@@H]3NC(=N)N)O[C@@H](C)[C@]2(O)CO)O[C@@H](CO)[C@H](O)[C@H]1O` [DIHYDROSTREPTOMYCIN], the AC50 (in assay [1]; on Histamine H3 receptor; in assay [2]; in [3]; on D(3) dopamine receptor; on D(1A) dopamine receptor) was above 30 µM throughout. The AC50 (in [9]; in assay [5]; in assay [6]; at Prothrombin; at Thromboxane A2 receptor; in [7]) was above 30 µM each time. Further, the AC50 (in assay [10]; in assay [8]; at Acetylcholinesterase) was above 30 µM in each case.
`C#C[C@]1(O)C=C[C@H]2[C@@H]3CCC4=CC(=O)CC[C@@H]4[C@H]3CC[C@@]21CC` [GESTODENE]: the concentration at half-maximal activity (AC50) (in assay [1]; on Histamine H3 receptor; in assay [2]; in assay [3]; on D(3) dopamine receptor; on D(1A) dopamine receptor) was above 30 µM each time. The concentration at half-maximal activity (AC50) (in assay [9]; in assay [5]; in assay [6]; at Prothrombin; at Thromboxane A2 receptor; in assay [7]) was above 30 µM each time. In addition, the concentration at half-maximal activity (AC50) (in assay [10]; in assay [8]; at Acetylcholinesterase) was above 30 µM throughout.
Turning to `CC(CN1c2ccccc2Sc2ccccc21)N(C)C` (configuration not stated) [PROMETHAZINE], the half-maximal activity concentration (AC50) is 11.3 µM in assay [1]; above 30 µM at Histamine H3 receptor; above 30 µM in [2]; 0.03 µM in assay [3]; 0.46 µM at D(3) dopamine receptor; 1.72 µM at D(1A) dopamine receptor. For the same compound, the concentration at half-maximal activity (AC50) in [9] is above 30 µM; in [5], 0.7 µM; in [6] it was above 30 µM; on Prothrombin it was above 30 µM; at Thromboxane A2 receptor it was above 3 µM; in assay [7], above 30 µM. Moreover, the AC50 (in [8]; on Acetylcholinesterase) was above 30 µM throughout.
As for `CC(C)C[C@H](NC(=O)[C@@H](O)[C@H](N)Cc1ccccc1)C(=O)O` [UBENIMEX], the AC50 (in [1]; at Histamine H3 receptor; in assay [2]; in assay [3]; at D(3) dopamine receptor; on D(1A) dopamine receptor) was above 30 µM throughout. Moreover, the AC50 (in [9]; in [5]; in [6]; at Prothrombin; at Thromboxane A2 receptor; in assay [7]) was above 30 µM each time. The AC50 (in assay [10]; in [8]; on Acetylcholinesterase) was above 30 µM in each case.
Turning to `CCC1=C[C@@H]2CN(C1)Cc1c([nH]c3ccccc13)[C@@](C(=O)OC)(c1cc3c(cc1OC)N(C)[C@H]1[C@@](O)(C(=O)OC)[C@H](OC(C)=O)[C@]4(CC)C=CCN5CC[C@]31[C@@H]54)C2` [VINORELBINE], the AC50 (in assay [1]; at Histamine H3 receptor; in [2]; in [3]; at D(3) dopamine receptor; in assay [4]) was above 30 µM each time. Also, the AC50 (on D(1A) dopamine receptor; in [9]; in assay [5]; in [6]; on Prothrombin; at Thromboxane A2 receptor) was above 30 µM throughout. Further, the AC50 (in assay [7]; in assay [8]; on Acetylcholinesterase) was above 30 µM in each case.

(Values after ChEMBL document CHEMBL5291721, “A preclinical secondary pharmacology resource illuminates target-adverse drug reaction associations of marketed drugs” (Nat Commun, 2023).)
